The values below come from patent US20190375778A1, “ADENOSINE DERIVATIVES FOR USE IN THE TREATMENT OF CANCER” (NuCana plc, priority 2016, published 2019).

What all share (format): cell-based
In data set [1] the test system is MCF7. Put plainly: MTT cytotoxicity assay, MCF7. To be noted: Homo sapiens, 96 h compound exposure, read-out: absolute IC50, MCF7. An excerpt: (§1) Lovo: cell line derived from a metastatic site in a patient with colon cancer MCF7: human oestrogen sensitive mammary epithelial cell line PC3: human prostate cancer cell line A549: cancerous lung tissue derived cells L1210: lymphoblast cell line derived from a mouse with lymphocytic leukaemia FM3A: mammary carcinoma murine cells CEM: human T-lymphoblasts, derived from the blood of a patient with acute lymphoblastic leukaemia HeLa: epithelial cells from a patient with cervical adenocarcinoma
(§2) Anti-tumour evaluation in MCF7, LoVo, A549 and PC3 cell lines was performed by MTT assay. Compounds were prepared as 0.1-100 mM stock solutions dissolved in DMSO and stored at −20° C. Cells were seeded into 96-well microtitre plates at a density of 5×10^3 cells per well and allowed 24 hours to adhere. Decimal compound dilutions were prepared in medium immediately prior to each assay (final concentration 0.1-100 μM). Experimental medium was DMEM+10% FCS (PC3 and Lovo) or RPMI+10% heat inactivated FCS (A549 and MCF7). Following 96 h compound exposure at 37° C., 5% CO2, MTT reagent (Sigma Aldrich) was added to each well (final concentration 0.5 mg/ml). Incubation at 37° C. for 4 h allowed reduction of MTT by viable cells to an insoluble formazan product. MTT was removed and formazan solubilised by addition of 10% Triton X-100 in PBS. Absorbance was read on a Tecan Sunrise spectrophotometer at 540 nm as a measure of cell viability; thus inhibition relative to control was determined (IC50).
On the technique in general: Formazan colour is commonly taken as a measure of viable cells.

For data set [2], the system named is PC3. In words: MTT cytotoxicity assay, PC3. The conditions noted are these: Homo sapiens, PC-3, 96 h compound exposure, read-out: absolute IC50, PC3.
Text: as §1, §2

In data set [3] the test system is A549. In words: MTT cytotoxicity assay, A549. To be noted: Homo sapiens, 96 h compound exposure, read-out: absolute IC50, A549.
Text: as §1, §2

For data set [4], the system named is CTS cell line. Put plainly: Intracellular 8-Cl-ATP/ATP by LC-MS/MS, CTS. To be noted: for difference in intracellular accumulation of 8-Cl-ATP on inhibiting hENT1: with NBTI. As to the method: (§3) Cell lines with 3×10^6 cells/ml were used. Cells were treated with 1 μl of 20 μM of each 8-Cl-A, compound A, compound B and compound D and incubated for 2 hours at 37° C. with 5% CO2. After incubation, the cells were centrifuged (ambient, 1200 rpm, 5 minutes), the supernatant was removed, and the pellet was washed with lml of PBS and centrifuged (ambient, 1200 rpm, 5 minutes). The supernatant was removed, the pellet was reconstituted in 100 μl of PBS and 100 μl of 0.8M perchloric acid. This was then centrifuged (ambient, 1200 rpm, 5 minutes) and 180 μl of the supernatant was transferred to new tubes and stored at −80° C. until time of analysis.
(§4) For inhibitor studies the cell lines were treated in the same way as described above but before treatment with drugs, a number of inhibitors were added: • 1) Nitrobenzylthioinosine (NBTI) (Sigma-Aldrich, St. Louis, Mo.) inhibits hENT1. • 2) A-134974 dihydrochloride hydrate (Sigma-Aldrich, St. Louis, Mo.) inhibits adenosine kinase. • 3) EHNA hydrochloride (Sigma-Aldrich, St. Louis, Mo.) inhibits adenosine deaminase.
(§5) Cells were treated with 1 μl of 10 μM of each inhibitor and left for 5 minutes before adding the drug. The cells were then incubated for 2 hours at 37° C. with 5% CO2.
(§6) The analytes were resolved using an ultra-performance liquid chromatography system (Accela UPLC, Thermo Scientific, UK) equipped with a Biobasic A×5 μm, 50×2.1 mm column (Thermo Electron Corporation, Murrieta, Calif., USA) and mobile phase consisting of a mixture of 10 mM NH4Ac in ACN/H2O (30:70 v/v), pH6.0 (A), and 1 mM NH4Ac in ACN/H2O (30:70 v/v), pH10.5 (B). The mobile phase gradient was employed, comprising: buffer A=95% at 0-0.5 minutes, from 95 to 0% over 1.25 minutes, held at 0% for 1.75 minutes, from 0-95% over 0.1 minutes, ending with 95% for 2.9 minutes, all at a flow rate of 500 μl/min.
(§7) For compounds detection a triple stage quadrupole Vantage mass spectrometry system (Thermo Scientific, UK) equipped with an electrospray ion source was used. Samples were analysed in the Multiple Reaction Monitoring, negative ion modes at spray voltage 3000V.
(§8) The dose-response curves of cytotoxicity of the drugs was determined using non-linear regression analysis of percentage cell viability versus concentration and EC50 values were obtained. The intracellular assay was conducted in five repeats for each condition. Intracellular assay was determined using paired T test (two-tailed) analysis of 8-ChloroATP/ATP concentration and p values were obtained. Drug stability in human plasma was determined using two-way ANOVA analysis. For all the analysis, Prism Software program (GraphPad Software) was used.

For data set [5], the system named is CTS. In words: ATP ViaLight cytotoxicity assay, CTS. To be noted: 72 h. As for the experimental part:
(§9) HL-60, CTS, and K-562 are leukaemia cell lines, which were obtained from the American Type Culture Collection (ATCC), Middlesex. HL-60 cell line is of acute promyelocytic leukaemia; CTS cell line is of acute myeloid leukaemia; and K-562 cell line is of chronic myeloid leukaemia.
(§10) HL-60, CTS, and K-562 cell lines were cultured in RPMI-1640 medium (Sigma Aldrich, UK), which was supplemented with 10% Fetal Bovine Serum (FBS) (PAA Laboratories), 1% amphotericin B (5.5 ml) and 1% penicillin/streptomycin (5.5 ml) (PAA Laboratories) and grown in flasks at 37° C. incubator with 5% CO2.
as §4
[…] For inhibitor studies, 10 M concentration of each inhibitor was added before drugs and incubated for 72 hours at 37° C. with 5% CO2.
(§11) After incubation, 50 μl of cell lysis reagent was added to the 96 well plates to release the intracellular ATP, followed by 100 μl of ATP monitoring reagent (AMR). The luminescent values of each well were determined using FLUOstar OPTIMA microplate reader (BMG Labtech) which converted ATP into light by using luciferase enzyme.
as §8

The test system of data set [6] is K-562 cell line. In words: Intracellular 8-Cl-ATP/ATP by LC-MS/MS, K-562. The conditions noted are these: for difference in intracellular accumulation of 8-Cl-ATP on inhibiting hENT1: K-562, with NBTI. As for the experimental part:
as §3, §4, §5, §6, §7, §8

In data set [7] the test system is HL-60 cell line. Put plainly: Intracellular 8-Cl-ATP/ATP by LC-MS/MS, HL-60. The conditions noted are these: for difference in intracellular accumulation of 8-Cl-ATP on inhibiting hENT1: HL-60, with NBTI. As to the method:
as §3, §4, §5, §6, §7, §8

Data set [8] deals with HL-60. In words: ATP ViaLight cytotoxicity assay, HL-60. To be noted: Homo sapiens, HL-60, 72 h. As for the experimental part: as §9, §10, §4
ATP ViaLight™ plus assay kit (Lonza, USA: Product No. LT07-121) was used for treating the cells in luminescence compatible 96 well plates (initial concentration of cells was 1×10^4 cells/well) with 8-Cl-A and ProTides, concentrations: 0, 0.1, 0.5, 1, 5 and 10 μM were added to cells, respectively, followed by incubation for 72 hours at 37° C. incubator with 5% CO2. For inhibitor studies, […] concentration of each inhibitor was added before drugs and incubated for 72 hours at 37° C. with 5% CO2.
as §11, §8

The mark [9] stands for this setting: with A-134974 (adenosine kinase inhibitor).

The term IC50 denotes the concentration at which inhibition is half-maximal. On to `C[C@H](NP(=O)(OC[C@H]1O[C@@H](n2c(Cl)nc3c(N)ncnc32)[C@H](O)[C@@H]1O)Oc1ccccc1)C(=O)OCc1ccccc1` (mixture of isomers) [C, (2S)-Benzyl 2-(((((2R,3S,4R,5R)-5-(6-amino-8-chloro-9H-purin-9-yl)-3,4-dihydroxy-tetrahydrofuran-2-yl)methoxy)(phenoxy)phosphoryl)amino)propanoate], for which the results for the IC50 in data set [1], in data set [2] and in data set [3] were 15 to 100 µM, 0.1 to 5 µM and 15 to 100 µM, respectively.

Broadly, the EC50 is the concentration at which the effect is half-maximal. Lower therefore signals an effect from little substance. For `Nc1ncnc2c1nc(Cl)n2[C@@H]1O[C@H](COP(=O)(NCC(=O)OC2CCCCC2)Oc2ccccc2)[C@@H](O)[C@H]1O` (mixture of isomers) [Compound A, Cyclohexyl 2-(((((2R,3S,4R,5R)-5-(6-amino-8-chloro-9H-purin-9-yl)-3,4-dihydroxy-tetrahydrofuran-2-yl)methoxy)(phenoxy)phosphoryl)amino)acetate], the IC50 in data set [1], in data set [2] and in data set [3] was 15 to 100 µM in each case. For the same compound, in data set [4] (with A-134974), the “difference in intracellular accumulation of 8-Cl-ATP on inhibiting adenosine kinase” value is “did not produce significant difference”. The “difference in intracellular accumulation of 8-Cl-ATP on inhibiting hENT1” value (shortened to “difference … on inhibiting hENT1”) in data set [4], in data set [6] and in data set [7] was “did not produce significant difference” throughout. In addition, the results for the 50% effective concentration (EC50) in data set [5] (setting [9]), in data set [5] (with NBTI (hENT1 inhibitor)) and in data set [8] (Control (no inhibitor)) were 28 µM, 270 µM and 12.4 µM, respectively. Further, in data set [6] (K-562, with A-134974), the “difference in 8-Cl-ATP concentration on inhibiting adenosine kinase” value is “did not produce significant difference”. The “difference in intracellular accumulation of 8-Cl-ATP on blocking adenosine kinase” value in data set [7] (HL-60, with A-134974) is “did not produce significant difference”.

Regarding `Nc1ncnc2c1nc(Cl)n2[C@@H]1O[C@H](COP(=O)(NCC(=O)OCc2ccccc2)Oc2ccccc2)[C@@H](O)[C@H]1O` (mixture of isomers) [Compound B, Benzyl 2-(((((2R,3S,4R,5R)-5-(6-amino-8-chloro-9H-purin-9-yl)-3,4-dihydroxytetra-hydrofuran-2-yl)methoxy)(phenoxy)phosphoryl)amino)acetate], the IC50 in data set [1] lay in the range of 15 to 100 µM; in data set [2] it was 0.1 to 5 µM; in data set [3], 5 to 15 µM. For the same compound, the “difference in intracellular accumulation of 8-Cl-ATP on inhibiting adenosine kinase” value in data set [4] (with A-134974) was “did not produce significant difference”. The “difference … on inhibiting hENT1” value in data set [4], in data set [6] and in data set [7] was “did not produce significant difference” in each case. In addition, the EC50 in data set [5] (Control (no inhibitor)) turned out to be 16.3 µM; in data set [5] (with NBTI (hENT1 inhibitor)), 63.9 µM; in data set [8] (Control (no inhibitor)), 0.49 µM; in data set [8] (setting [9]), 14.6 µM; in data set [8] (with NBTI (hENT1 inhibitor)), 8.76 µM.

As for `Nc1ncnc2c1nc(Cl)n2[C@@H]1O[C@H](CO)[C@@H](O)[C@H]1O` [8-chloroadenosine, 8-Chloroadenosine, reference compound], the half-maximal inhibitory concentration (IC50) in data set [1], in data set [2] and in data set [3] was 0.1 to 5 µM in each case. The “8-Cl-ATP/ATP ratio after inhibiting adenosine kinase” value in data set [4] (with A-134974) is recorded as “almost zero”; in data set [6] (K-562, with A-134974), “almost zero”; in data set [7] (HL-60, with A-134974), “almost zero”. Besides, the EC50 in data set [5] (Control (no inhibitor)) came out at 0.32 µM; in data set [5] (with NBTI (hENT1 inhibitor)), 5.48 µM; in data set [8] (Control (no inhibitor)) it was 0.64 µM; in data set [8] (with NBTI (hENT1 inhibitor)), 0.96 µM.

On to `C[C@H](NP(=O)(OC[C@H]1O[C@@H](n2c(Cl)nc3c(N)ncnc32)C(O)C1O)Oc1cccc2ccccc12)C(=O)OCc1ccccc1` (stereo partly drawn) [Compound D, (2S)-Benzyl 2-(((((2R,3S,4R,5R)-5-(6-amino-8-chloro-9H-purin-9-yl)-3,4-dihydroxy-tetrahydrofuran-2-yl)methoxynaphthalene-1-yloxy)phosphoryl)amino)propanoate], for which the “difference … on inhibiting hENT1” value in data set [4], in data set [6] and in data set [7] was “did not produce significant difference” each time. Moreover, the EC50 was determined as 2.64 µM in data set [5] (Control (no inhibitor)); 10.3 µM in data set [5] (setting [9]); 1.46 µM in data set [5] (with NBTI (hENT1 inhibitor)); 0.33 µM in data set [8] (Control (no inhibitor)); 21.3 µM in data set [8] (setting [9]); 1.23 µM in data set [8] (with NBTI (hENT1 inhibitor)).

In the case of `CC(C)C[C@H](NP(=O)(OC[C@H]1O[C@@H](n2c(Cl)nc3c(N)ncnc32)C(O)C1O)Oc1ccccc1)C(=O)OCc1ccccc1` (stereo partly drawn) [V, 5′-([(Benzyloxy-L-leucin-N-yl)-phenyl]-phosphatyl) 8-chloroadenosine], the IC50 in data set [1], in data set [2] and in data set [3] was 0.1 to 5 µM throughout.
